From ChEMBL document CHEMBL3885881, “DrugMatrix”

Species: Rattus norvegicus
Experiment: DrugMatrix - Regimen: Daily Repeat
Type: toxicity, organism-based, Sprague-Dawley
Set-up: regimen Daily Repeat, gender Male, age 6-8 weeks
Settings: in vivo, po, route oral GAVAGE, vehicle 100 % WATER; for ABSOLUTE BASOPHIL / ABSOLUTE EOSINOPHIL / ABSOLUTE LYMPHOCYTE / ABSOLUTE MONOCYTE / ABSOLUTE SEGMENTED NEUTROPHIL / BASOPHIL / EOSINOPHIL / ERYTHROCYTE COUNT / HEMATOCRIT / HEMOGLOBIN / LEUKOCYTE COUNT / LYMPHOCYTE / MEAN CORPUSCULAR HEMOGLOBIN / MEAN CORPUSCULAR HEMOGLOBIN CONCENTRATION / MEAN CORPUSCULAR VOLUME / MONOCYTE / NEUTROPHIL / NUCLEATED RED BLOOD CELLS / PLATELET COUNT: tissue Blood; for ALANINE AMINOTRANSFERASE / ALBUMIN / ALKALINE PHOSPHATASE / ASPARTATE AMINOTRANSFERASE / BLOOD UREA NITROGEN / CARBON DIOXIDE / CHLORIDE / CHOLESTEROL / CREATINE PHOSPHOKINASE / CREATININE / GLUCOSE / LACTATE DEHYDROGENASE / LIPASE / PHOSPHORUS / POTASSIUM / SODIUM / TOTAL BILIRUBIN / TOTAL PROTEIN / URIC ACID: tissue Plasma
[1] = 0 mg/kg, 72 h, dose level Control, time 3 day
[2] = 0 mg/kg, 120 h, dose level Control, time 5 day
[3] = […], 72 h, dose 0.025 mg/Kg, dose level Low, time 3 day
[4] = […], 72 h, dose 0.25 mg/Kg, dose level High, time 3 day

C[C@@H]1C[C@@H]([C@H](O)CC2CC(=O)NC(=O)C2)C(=O)[C@@H](C)C1 [CYCLOHEXIMIDE]
ABSOLUTE BASOPHIL [1]: 0 CELLS/uL
ABSOLUTE EOSINOPHIL [1]: 25 CELLS/uL
ABSOLUTE LYMPHOCYTE [1]: 14357 CELLS/uL
ABSOLUTE MONOCYTE [1]: 456.33 CELLS/uL
ABSOLUTE SEGMENTED NEUTROPHIL [1]: 1461.67 CELLS/uL
BASOPHIL [1]: 0%
EOSINOPHIL [1]: 0.17%
ERYTHROCYTE COUNT [1]: 5.85 x10E6/uL
HEMATOCRIT [1]: 37.62%
HEMOGLOBIN [1]: 13.87 G/DL
LEUKOCYTE COUNT [1]: 16.3 x10E3/uL
LYMPHOCYTE [1]: 88%
MEAN CORPUSCULAR HEMOGLOBIN [1]: 23.68 pg
MEAN CORPUSCULAR HEMOGLOBIN CONCENTRATION [1]: 36.88 G/DL
MEAN CORPUSCULAR VOLUME [1]: 64.23 fL
MONOCYTE [1]: 2.83%
NEUTROPHIL [1]: 9%
NUCLEATED RED BLOOD CELLS [1]: 0 /100WBC
PLATELET COUNT [1]: 1125.33 x10E3/uL
ALANINE AMINOTRANSFERASE [1]: 49.67 u/L
ALBUMIN [1]: 4.23 G/DL
ALKALINE PHOSPHATASE [1]: 400.83 u/L
ASPARTATE AMINOTRANSFERASE [1]: 89.17 u/L
BLOOD UREA NITROGEN [1]: 16 mg/dL
CARBON DIOXIDE [1]: 31.83 mmol/L
CHLORIDE [1]: 99 MEQ/L
CHOLESTEROL [1]: 76 mg/dL
CREATINE PHOSPHOKINASE [1]: 777.67 u/L
CREATININE [1]: 0.22 mg/dL
GLUCOSE [1]: 158.33 mg/dL
LACTATE DEHYDROGENASE [1]: 186.17 u/L
LIPASE [1]: 9.33 u/L
PHOSPHORUS [1]: 12.95 mg/dL
POTASSIUM [1]: 7.01 MEQ/L
SODIUM [1]: 141.53 MEQ/L
TOTAL BILIRUBIN [1]: 0.18 mg/dL
TOTAL PROTEIN [1]: 6.08 G/DL
URIC ACID [1]: 1.77 mg/dL
ABSOLUTE BASOPHIL [2]: 0 CELLS/uL
ABSOLUTE EOSINOPHIL [2]: 0 CELLS/uL
ABSOLUTE LYMPHOCYTE [2]: 8994.5 CELLS/uL
ABSOLUTE MONOCYTE [2]: 122.33 CELLS/uL
ABSOLUTE SEGMENTED NEUTROPHIL [2]: 666.5 CELLS/uL
BASOPHIL [2]: 0%
EOSINOPHIL [2]: 0%
ERYTHROCYTE COUNT [2]: 5.74 x10E6/uL
HEMATOCRIT [2]: 35.17%
HEMOGLOBIN [2]: 13.28 G/DL
LEUKOCYTE COUNT [2]: 9.78 x10E3/uL
LYMPHOCYTE [2]: 92.33%
MEAN CORPUSCULAR HEMOGLOBIN [2]: 23.15 pg
MEAN CORPUSCULAR HEMOGLOBIN CONCENTRATION [2]: 37.8 G/DL
MEAN CORPUSCULAR VOLUME [2]: 61.27 fL
MONOCYTE [2]: 1.33%
NEUTROPHIL [2]: 6.33%
NUCLEATED RED BLOOD CELLS [2]: 0 /100WBC
PLATELET COUNT [2]: 1117 x10E3/uL
ALANINE AMINOTRANSFERASE [2]: 47.83 u/L
ALBUMIN [2]: 4.33 G/DL
ALKALINE PHOSPHATASE [2]: 414.5 u/L
ASPARTATE AMINOTRANSFERASE [2]: 77.5 u/L
BLOOD UREA NITROGEN [2]: 17 mg/dL
CARBON DIOXIDE [2]: 32.33 mmol/L
CHLORIDE [2]: 99.33 MEQ/L
CHOLESTEROL [2]: 76.33 mg/dL
CREATINE PHOSPHOKINASE [2]: 363.67 u/L
CREATININE [2]: 0.25 mg/dL
GLUCOSE [2]: 173.5 mg/dL
LACTATE DEHYDROGENASE [2]: 129.33 u/L
LIPASE [2]: 9.17 u/L
PHOSPHORUS [2]: 11.52 mg/dL
POTASSIUM [2]: 5.73 MEQ/L
SODIUM [2]: 143.85 MEQ/L
TOTAL BILIRUBIN [2]: 0.2 mg/dL
TOTAL PROTEIN [2]: 6.43 G/DL
URIC ACID [2]: 0.97 mg/dL
ABSOLUTE BASOPHIL [3]: 0 CELLS/uL
ABSOLUTE EOSINOPHIL [3]: 0 CELLS/uL
ABSOLUTE LYMPHOCYTE [3]: 12322.33 CELLS/uL
ABSOLUTE MONOCYTE [3]: 322 CELLS/uL
ABSOLUTE SEGMENTED NEUTROPHIL [3]: 1589 CELLS/uL
BASOPHIL [3]: 0%
EOSINOPHIL [3]: 0%
ERYTHROCYTE COUNT [3]: 5.38 x10E6/uL
HEMATOCRIT [3]: 34.5%
HEMOGLOBIN [3]: 12.73 G/DL
LEUKOCYTE COUNT [3]: 14.23 x10E3/uL
LYMPHOCYTE [3]: 86.67%
MEAN CORPUSCULAR HEMOGLOBIN [3]: 23.63 pg
MEAN CORPUSCULAR HEMOGLOBIN CONCENTRATION [3]: 36.93 G/DL
MEAN CORPUSCULAR VOLUME [3]: 64 fL
MONOCYTE [3]: 2.33%
NEUTROPHIL [3]: 11%
NUCLEATED RED BLOOD CELLS [3]: 0 /100WBC
PLATELET COUNT [3]: 1165.33 x10E3/uL
ABSOLUTE BASOPHIL [4]: 0 CELLS/uL
ABSOLUTE EOSINOPHIL [4]: 0 CELLS/uL
ABSOLUTE LYMPHOCYTE [4]: 15128.33 CELLS/uL
ABSOLUTE MONOCYTE [4]: 349 CELLS/uL
ABSOLUTE SEGMENTED NEUTROPHIL [4]: 956 CELLS/uL
BASOPHIL [4]: 0%
EOSINOPHIL [4]: 0%
ERYTHROCYTE COUNT [4]: 5.63 x10E6/uL
HEMATOCRIT [4]: 36.7%
HEMOGLOBIN [4]: 13.27 G/DL
LEUKOCYTE COUNT [4]: 16.43 x10E3/uL
LYMPHOCYTE [4]: 91.67%
MEAN CORPUSCULAR HEMOGLOBIN [4]: 23.6 pg
MEAN CORPUSCULAR HEMOGLOBIN CONCENTRATION [4]: 36.17 G/DL
MEAN CORPUSCULAR VOLUME [4]: 65.3 fL
MONOCYTE [4]: 2%
NEUTROPHIL [4]: 6.33%
NUCLEATED RED BLOOD CELLS [4]: 0 /100WBC
PLATELET COUNT [4]: 1150.67 x10E3/uL
